Measured values published in ChEMBL document CHEMBL4364356, “Deuteration of BTZ043 Extends the Lifetime of Meisenheimer Intermediates to the Antituberculosis Nitroso Oxidation State” (ACS Med Chem Lett, 2019).
Calls of active or inactive are those of the source. No cut-off for these calls is given here.

Key:
[1] = Prodrug conversion in THF/MeOH solution assessed as first order rate constant for deuterated metabolite (6D2) formation at 0.01 mmol treated with NaBD4 by UV-visible spectroscopic analysis; assay type: ADME
[2] = Prodrug conversion in THF/MeOH solution assessed as first order rate constant for protonated/deuterated metabolite (6HD) formation at 0.01 mmol treated with NaBH4 by UV-visible spectroscopic analysis; assay type: ADME
[3] = Drug recovery in THF/MeOH solution measured after 3 days by 1H-NMR analysis; conditions: tested as the 2H-labelled form
[4] = target: T1, Decaprenylphosphoryl-beta-D-ribose oxidase (Mycobacterium tuberculosis (strain ATCC 25618 / H37Rv)) (UniProt P9WJF1); assay: Inhibition of DprE1 in Mycobacterium tuberculosis H37Rv assessed as reduction in bacterial growth at 0.02 to 0.03 uM measured in GAS medium
T1 sequence (whole entry): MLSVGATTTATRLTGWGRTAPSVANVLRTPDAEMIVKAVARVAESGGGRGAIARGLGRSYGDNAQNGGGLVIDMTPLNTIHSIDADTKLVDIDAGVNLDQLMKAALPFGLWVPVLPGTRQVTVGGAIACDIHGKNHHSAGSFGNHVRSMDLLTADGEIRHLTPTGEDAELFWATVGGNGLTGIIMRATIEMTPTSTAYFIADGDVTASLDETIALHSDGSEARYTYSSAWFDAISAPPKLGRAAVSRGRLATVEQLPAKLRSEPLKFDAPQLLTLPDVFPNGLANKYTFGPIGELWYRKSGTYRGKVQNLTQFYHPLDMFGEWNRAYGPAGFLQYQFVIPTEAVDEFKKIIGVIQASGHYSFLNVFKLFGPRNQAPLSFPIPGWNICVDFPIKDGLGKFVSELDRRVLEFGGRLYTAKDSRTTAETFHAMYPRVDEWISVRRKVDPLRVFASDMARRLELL

[5] = Prodrug conversion in THF/MeOH solution assessed as first order rate constant for protonated metabolite (6H2) formation at 0.01 mmol treated with NaBH4 by UV-visible spectroscopic analysis; assay type: ADME
[6] = target: T1, Decaprenylphosphoryl-beta-D-ribose oxidase (Mycobacterium tuberculosis (strain ATCC 25618 / H37Rv)); assay: Inhibition of DprE1 in Mycobacterium tuberculosis H37Rv assessed as reduction in bacterial growth at <0.004 uM measured in MABA media

Row | SMILES | K [1] [×10⁻⁵ /s] | K [2] [×10⁻⁵ /s] | Drug recovery [3] [%] | inhibition [4] | inhibition ([4]; tested as the 2H-labelled form) | K [5] [×10⁻⁵ /s] | inhibition [6] | inhibition ([6]; tested as the 2H-labelled form)
1 | [2H]c1c(C(F)(F)F)c([2H])c2c(=O)nc(N3CCC4(CC3)OC[C@H](C)O4)sc2c1[N+](=O)[O-] | 1.2 | 2.8 |  |  |  |  |  | 
2 | C[C@H]1COC2(CCN(c3nc(=O)c4cc(C(F)(F)F)cc([N+](=O)[O-])c4s3)CC2)O1 [BTZ-043] |  |  | 95 | Active | Active | 5.6 | Active | Active
